PubChem BioAssay (NCI)
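Values below derive from 48-hour exposures of cells grown in 96-well plates, with endpoints linearly interpolated between the two concentrations bracketing the appropriate inhibition level. TGI: concentration producing complete growth inhibition.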

What was measured:
Assay in all cases: NCI tumour cell line growth inhibition, 48 h
HOP-62 NSCLC = system: HOP-62 NSCLC
A549 NSCLC = system: A549 NSCLC
MDA-N = system: MDA-N
SF-539 CNS = system: SF-539 CNS
OVCAR-8 ovarian = system: OVCAR-8 ovarian
UACC-62 melanoma = system: UACC-62 melanoma
HS 578T breast = system: HS 578T breast
SNB-75 CNS = system: SNB-75 CNS
SNB-19 CNS = system: SNB-19 CNS
HT29 colon = system: HT29 colon
UO-31 renal = system: UO-31 renal
RPMI-8226 leukemia = system: RPMI-8226 leukemia
LOX IMVI melanoma = system: LOX IMVI melanoma
SF-268 CNS = system: SF-268 CNS
CCRF-CEM leukemia = system: CCRF-CEM leukemia
NCI-H460 lung = system: NCI-H460 lung
ACHN renal = system: ACHN renal
CAKI-1 renal = system: CAKI-1 renal
PC-3 prostate = system: PC-3 prostate
T-47D breast = system: T-47D breast
SK-MEL-2 melanoma = system: SK-MEL-2 melanoma
MALME-3M melanoma = system: MALME-3M melanoma
K-562 leukemia = system: K-562 leukemia
SK-MEL-5 melanoma = system: SK-MEL-5 melanoma
SK-MEL-28 melanoma = system: SK-MEL-28 melanoma
U251 CNS = system: U251 CNS
OVCAR-4 ovarian = system: OVCAR-4 ovarian
DU-145 prostate = system: DU-145 prostate
SK-OV-3 ovarian = system: SK-OV-3 ovarian
MDA-MB-435 = system: MDA-MB-435
BT-549 breast = system: BT-549 breast
HOP-92 NSCLC = system: HOP-92 NSCLC
IGROV1 ovarian = system: IGROV1 ovarian
SN12C renal = system: SN12C renal
786-0 renal = system: 786-0 renal
NCI/ADR-RES ovarian = system: NCI/ADR-RES ovarian
HL-60(TB) leukemia = system: HL-60(TB) leukemia
UACC-257 melanoma = system: UACC-257 melanoma
SW-620 colon = system: SW-620 colon
NCI-H23 lung = system: NCI-H23 lung
M14 melanoma = system: M14 melanoma
NCI-H522 lung = system: NCI-H522 lung
KM12 colon = system: KM12 colon
SF-295 CNS = system: SF-295 CNS
SR leukemia = system: SR leukemia
HCT-15 colon = system: HCT-15 colon
MDA-MB-231 breast = system: MDA-MB-231 breast
OVCAR-3 ovarian = system: OVCAR-3 ovarian
MOLT-4 leukemia = system: MOLT-4 leukemia
EKVX NSCLC = system: EKVX NSCLC
OVCAR-5 ovarian = system: OVCAR-5 ovarian
TK-10 renal = system: TK-10 renal
COLO 205 colon = system: COLO 205 colon
A498 renal = system: A498 renal
MCF7 breast = system: MCF7 breast
HCC-2998 colon = system: HCC-2998 colon
NCI-H226 lung = system: NCI-H226 lung
HCT-116 colon = system: HCT-116 colon
RXF 393 renal = system: RXF 393 renal

Measured: TGI

Cc1c2ccccc2nc2[nH]c3ccncc3c12
32.8 µM: SF-268 CNS
74.8 µM: UACC-62 melanoma
85.7 µM: M14 melanoma
79.6 µM: HOP-92 NSCLC
98.5 µM: EKVX NSCLC
77.7 µM: RPMI-8226 leukemia
91.9 µM: OVCAR-3 ovarian
77.2 µM: ACHN renal
74.3 µM: NCI-H23 lung
71.5 µM: 786-0 renal
59.4 µM: TK-10 renal
66.6 µM: MALME-3M melanoma
85.1 µM: SN12C renal
10.9 µM: CCRF-CEM leukemia
95 µM: SK-MEL-5 melanoma | OVCAR-5 ovarian
96.7 µM: CAKI-1 renal
39.8 µM: NCI-H460 lung
62 µM: HOP-62 NSCLC
45.4 µM: LOX IMVI melanoma
72.4 µM: NCI/ADR-RES ovarian
not listed: MCF7 breast | HCC-2998 colon | NCI-H226 lung | HCT-116 colon | RXF 393 renal
> 100 µM: all other assays above

O=C1c2ccccc2C(=O)c2[nH]c(=O)c(/C=N/Nc3ccc([N+](=O)[O-])cc3)nc21
> 39.2 µM: LOX IMVI melanoma
> 75.2 µM: CAKI-1 renal
2.82 µM: SK-MEL-5 melanoma
5.88 µM: UACC-257 melanoma
> 48.8 µM: IGROV1 ovarian
> 51.6 µM: MDA-MB-231 breast
> 21.3 µM: HOP-62 NSCLC
19.2 µM: SF-539 CNS
75.6 µM: COLO 205 colon
4.16 µM: UACC-62 melanoma
> 76.5 µM: OVCAR-5 ovarian
> 61.2 µM: RPMI-8226 leukemia
14.2 µM: A498 renal
> 61.6 µM: NCI/ADR-RES ovarian
45.4 µM: ACHN renal
> 62.2 µM: 786-0 renal
> 45.4 µM: SW-620 colon
12.1 µM: SK-MEL-2 melanoma
> 25.3 µM: OVCAR-3 ovarian
4.45 µM: NCI-H226 lung
12.4 µM: SF-295 CNS
4.78 µM: HCC-2998 colon
2.63 µM: MDA-N
38 µM: HOP-92 NSCLC
> 30.5 µM: SK-MEL-28 melanoma
> 21.5 µM: HT29 colon
2.78 µM: MALME-3M melanoma
> 100 µM: A549 NSCLC | SNB-19 CNS | CCRF-CEM leukemia | KM12 colon
2.88 µM: DU-145 prostate
37.2 µM: SN12C renal
> 50.7 µM: OVCAR-8 ovarian
> 65.4 µM: K-562 leukemia
> 44 µM: MCF7 breast
> 57.9 µM: PC-3 prostate
51.2 µM: TK-10 renal
> 65.2 µM: SR leukemia
> 78.6 µM: MOLT-4 leukemia
3.99 µM: MDA-MB-435
21.1 µM: HS 578T breast
> 95 µM: T-47D breast
> 73 µM: EKVX NSCLC
5.01 µM: M14 melanoma
3.79 µM: NCI-H23 lung
> 38.8 µM: HCT-15 colon
> 48 µM: UO-31 renal
> 75.5 µM: OVCAR-4 ovarian
33.4 µM: RXF 393 renal
13 µM: NCI-H522 lung
4.18 µM: NCI-H460 lung
> 37.6 µM: U251 CNS
29.6 µM: SF-268 CNS
20.4 µM: BT-549 breast
> 47.3 µM: SK-OV-3 ovarian
> 73.1 µM: HCT-116 colon

CC1(C)C2CCC1(C)C(NC(=O)CCN1CCOCC1)C2 (configuration not stated)
not listed: RPMI-8226 leukemia | LOX IMVI melanoma | SK-MEL-2 melanoma | NCI/ADR-RES ovarian | HCT-15 colon
> 100 µM: all other assays above

Nc1nc(N)c2ncn(Cc3c(Cl)cccc3Cl)c2n1
48.7 µM: SNB-75 CNS
not listed: NCI-H460 lung | K-562 leukemia | HL-60(TB) leukemia | SR leukemia
> 100 µM: all other assays above

C[C@H](C(=O)N1C(=O)O[C@@H](c2ccccc2)[C@H]1C)[C@H](c1ccccc1)N(Cc1ccccc1)OC(=O)c1ccccc1
52.1 µM: HOP-62 NSCLC
85.3 µM: HCC-2998 colon
90.9 µM: SF-295 CNS
73.7 µM: SK-MEL-2 melanoma
69.2 µM: SK-MEL-5 melanoma
not listed: SR leukemia | OVCAR-3 ovarian | EKVX NSCLC
> 100 µM: all other assays above

O=C(Nc1ccccc1)N1CC(CN2CCN(c3ccccc3)CC2)OC1=O (configuration not stated)
not listed: SF-539 CNS | OVCAR-8 ovarian | SNB-75 CNS | OVCAR-3 ovarian
> 100 µM: all other assays above

CNNC1=NS(=O)(=O)c2cc(C(=O)OC)c(Cl)cc2S1
not listed: UO-31 renal | HOP-92 NSCLC | SR leukemia
> 10 µM: all other assays above
